According to US11471467B2, “Ruthenium complexes for treating cancer which comprises cancer stem cells” (UNIVERSIDADE DE SANTIAGO DE COMPOSTELA, priority 2016, dated 2022):

Experiments:
Format in all cases: cell-based
c-MYC = c-MYC protein expression by Western blot in HeLa cells
Method: FIG. 11. (Left) Analysis of the expression levels of c-MYC (light colored bars) and ALAS1 (dark colored bars) by means of qRT-PCR. HeLa cells were incubated for 16 h or 48 h with 100 μM of complex 1 (RuCl), TMPyP4, or 50 μM of 5-FU. The levels are expressed in relation to the expression levels of the GAPDH gene. The values are the average of three experiments, and the error bars indicate standard error. (Right) Analysis of the expression of c-MYC by means of Western blot. HeLa cells were incubated for 16 h with 100 μM of complex 1 (RuCl) and then lysed, and c-MYC was detected by means of SDS-PAGE followed by Western blot with an anti-MYC antibody (right, upper panel). The relative amount of protein in two independent experiments was quantified by means of densitometry (right, lower panel). The data is represented as the factor of change with respect to untreated controls. The error bars indicate the standard deviation of the factor of change with respect to untreated controls.
FIG. 14. (Left) Transcription levels of c-MYC determined by means of qRT-PCR in the dark (black bars) or after irradiation (60 min, white bars). […] The expression values are relative to the expression of the GAPDH gene. (Right) Expression levels of c-MYC protein determined by means of Western blot in the presence or absence of complex 5. The relative amount of protein with respect to the expression levels of β-actin was quantified by means of densitometry (lower panel). The experimental method was similar to the one described in FIG. 11.
FIG. 15. […] The light colored bars correspond to expression levels of c-MYC under irradiation conditions whereas the dark colored bars correspond to darkness conditions. […] The relative levels of protein with respect to the expression levels of β-actin were quantified by means of densitometry.
HeLa cells were incubated to a confluence of 50% in the presence of the indicated concentrations of the assayed agents for 16 h. […] The c-MYC protein was detected by means of an anti-MYC antibody (Santa-Cruz Biotechnologies). […]

PDAC cancer stem cells = test: Sphere formation (self-renewal) of PDAC cancer stem cells; conditions: for sphere formation capacity (self-renewal): PDAC cells pre-treated twice with 100 and 250 μM, treated again on day 4, against control cultures
Method: On one hand, the inventors analyzed if complex 2 may increase c-MYC expression in pancreatic CSCs, and on the other hand, if the increase in c-MYC expression would negatively affect the CSC phenotype, for example, CSC self-renewal capacity. […] After having achieved a substantial increase in c-MYC expression, it was then analyzed if the CSC self-renewal capacity was affected. To that end, briefly the PDAC cells were pre-treated twice with complex 2 (RuH2O) at a concentration of 100 and 250 μM before establishing sphere cultures in […] as described in Cioffi M (Cioffi M et al. 2015 Gut 12: 1936-1948). The spheres were again treated on day 4 after sphere formation.
It was then evaluated if ruthenium complex 2 may negatively affect CSC phenotypes, such as self-renewal and tumorigenicity. […] During these 7 days, the samples were treated again with 250 μM of RuH2O on days 1, 3, and 5 after initiation of the spheres. […] The CSC spheres were smaller and less abundant in the RuH2O group.
The trypsinized cells were then: 1) placed in a plate at a low confluence to evaluate their clonogenicity (FIG. 25); 2) repeatedly cultured in ultra-low adherent plates in serum-free DMEM/F12 supplemented with B27 for intervals of 7 days to evaluate sphere formation capacity over multiple generations (FIG. 26); and 3) subcutaneously injected into NOD-SCID mice to check their tumorigenicity as described above (FIG. 27).

[1] = test system: Panc185 and PancA6L cells; test: qRT-PCR gene expression in adherent PDAC cultures; conditions: 100 μM, 24 hours
Method: FIG. 19. […] The RNA of Panc185 and PancA6L cells was extracted 24 hours after treatment with 100 μM of RuH2O. qRT-PCR analysis of Oct3/4, Sox2, and PGC1alpha was performed in cDNA generated from treated samples. […] Panc185 cells are also interchangeably referred to herein as 185 and 185 scd and Pacn6AL cells are also interchangeably referred to herein as A6L.
Furthermore, a reduction in PGC1alpha expression, a known c-MYC target, and a reduction in pluripotency-associated genes Oct3/4 and Sox2 were observed after treatment with 100 μM of RuH2O for 24 hours (FIG. 19).

[Ru(terpy) (bpy)H2O]^2+ [complex 2]
c-MYC protein expression (c-MYC; in the dark): active both in the dark and upon being irradiated
c-MYC protein expression (c-MYC; under irradiation with light): active both in the dark and upon being irradiated
sphere formation capacity (self-renewal) (PDAC cancer stem cells): significant, dose-dependent reduction in the sphere formation capacity
sphere formation capacity (self-renewal) (PDAC cancer stem cells; listed as Complex 2): reduces the self-renewal capacity
sphere formation capacity (PDAC cancer stem cells; PDAC cells, 250 μM for 24 hours, again on days 1, 3 and 5, against control): significant reduction in the sphere formation capacity
self-regeneration (sphere formation over multiple generations) (PDAC cancer stem cells; adherent cultures treated 48 hours with 100 or 250 μM): prevents clonogenicity, self-regeneration, and tumorigenicity
Oct3/4 expression [1]: reduction
PGC1alpha expression [1]: reduction
Sox2 expression [1]: reduction
